Among the data in patent US20110201564A1, “SUBSTITUTED 7-SULFANYLMETHYL, 7-SULFINYLMETHYL AND 7-SULFONYLMETHYL INDOLES AND USE THEREOF” (BAYER SCHERING PHARMA AKTIENGESELLSCHAFT, priority 2008, published 2011) are IC50 values, retold here.

By IC50 is commonly meant the concentration at which inhibition is half-maximal.

Type in all cases: cell-based
The target in assay [1] is T1, progesterone receptor (PR) (Homo sapiens, UniProt P06401).
T1 construct: of the progesterone receptor (PR, amino acids 680-933); expressed in transfected cells; host or cells: CHO K1
T1 sequence (P06401 680-933): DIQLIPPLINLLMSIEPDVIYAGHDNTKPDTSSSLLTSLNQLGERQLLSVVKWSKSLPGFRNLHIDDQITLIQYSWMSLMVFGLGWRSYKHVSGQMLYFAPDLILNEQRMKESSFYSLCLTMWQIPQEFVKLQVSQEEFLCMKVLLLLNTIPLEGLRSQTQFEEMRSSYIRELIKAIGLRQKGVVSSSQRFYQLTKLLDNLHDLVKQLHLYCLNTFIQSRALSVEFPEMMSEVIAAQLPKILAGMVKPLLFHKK
As to the kind of experiment: Cellular in vitro assay, GAL4-PR chimera luciferase reporter in CHO K1 cells (selectivity). The note with it: antagonism vs progesterone; CHO K1 GAL4-PR LBD luciferase reporter. From the text: (§1) 1. Cellular In Vitro Assay to Determine the Inhibitory MR Activity and MR Selectivity Compared with Other Steroid Hormone Receptors
(§2) Antagonists of the human mineralocorticoid receptor (MR) are identified, and the activity of the compounds described herein is quantified with the aid of a recombinant cell line. The cell is originally derived from a hamster ovary epithelial cell (Chinese Hamster Ovary, CHO K1, ATCC: American Type Culture Collection, VA 20108, USA).
(§3) An established chimera system in which the ligand-binding domains of human steroid hormone receptors are fused to the DNA-binding domain of the yeast transcription factor GAL4 is used in this CHO K1 cell line. The GAL4-steroid hormone receptor chimeras produced in this way are cotransfected and stably expressed with a reporter construct in the CHO cells.
(§4) To generate the GAL4-steroid hormone receptor chimeras, the GAL4 DNA-binding domain (amino acids 1-147) from the vector pFC2-dbd (from Stratagene) is cloned with the PCR-amplified ligand-binding domains of the mineralocorticoid receptor (MR, amino acids 734-985), of the progesterone receptor (PR, amino acids 680-933) and of the androgen receptor (AR, amino acids 667-919) into the vector pIRES2 (from Clontech). The reporter construct, which comprises five copies of the GAL4 binding site upstream of a thymidine kinase promoter, leads to expression of firefly luciferase (Photinus pyralis) after activation and binding of the GAL4-steroid hormone receptor chimeras by the respective specific agonists aldosterone (MR), dexamethasone (GR), progesterone (PR) and dihydrotestosterone (AR).
(§5) The MR, PR and AR cells are plated out in medium (Optimem, 2.5% FCS, 2 mM glutamine, 10 mM HEPES) in 96- (or 384- or 1536-)well microtiter plates on the day before the assay and are kept in a cell incubator (96% humidity, 5% v/v CO2, 37° C.). On the day of the assay, the substances to be tested are taken up in the abovementioned medium and added to the cells. About 10 to 30 minutes after addition of the test substances, the respective specific agonists of the steroid hormone receptors are added. After a further incubation time of 5 to 6 hours, the luciferase activity is measured with the aid of a video camera. The measured relative light units as a function of the substance concentration result in a sigmoidal stimulation curve. The IC50 values are calculated with the aid of the GraphPad PRISM computer program (Version 3.02).
In general terms: A reporter such as luciferase makes a cellular process visible.

The next assay deals with T2, androgen receptor (AR) (Homo sapiens, UniProt P10275).
T2 construct: of the androgen receptor (AR, amino acids 667-919); expressed in transfected cells; host or cells: CHO K1
T2 sequence (P10275 668-920): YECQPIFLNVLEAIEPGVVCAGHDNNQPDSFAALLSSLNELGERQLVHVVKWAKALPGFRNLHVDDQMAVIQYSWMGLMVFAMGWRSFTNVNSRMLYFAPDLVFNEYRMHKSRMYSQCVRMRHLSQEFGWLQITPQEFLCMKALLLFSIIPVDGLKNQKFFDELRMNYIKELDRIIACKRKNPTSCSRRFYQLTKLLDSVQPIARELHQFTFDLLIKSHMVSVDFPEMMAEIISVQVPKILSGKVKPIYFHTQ
As to the kind of experiment: Cellular in vitro assay, GAL4-AR chimera luciferase reporter in CHO K1 cells (selectivity). As to conditions: antagonism vs dihydrotestosterone; CHO K1 GAL4-AR LBD luciferase reporter.
From the text: as §1, §2, §3, §4, §5

Assay [2] addresses T3, human mineralocorticoid receptor (MR) (Homo sapiens, UniProt P08235).
T3 construct: expressed in transfected cells; host or cells: CHO K1
T3 sequence (P08235 734-984 limits assumed): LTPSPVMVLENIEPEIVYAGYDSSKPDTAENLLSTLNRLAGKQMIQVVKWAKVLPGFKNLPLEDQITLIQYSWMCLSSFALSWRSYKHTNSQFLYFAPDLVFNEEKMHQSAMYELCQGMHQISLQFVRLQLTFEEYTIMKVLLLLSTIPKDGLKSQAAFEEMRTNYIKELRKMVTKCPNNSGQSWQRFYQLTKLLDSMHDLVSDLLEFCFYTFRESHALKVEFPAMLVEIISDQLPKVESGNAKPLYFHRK
As to the kind of experiment: Cellular in vitro assay, GAL4-MR chimera luciferase reporter in CHO K1 cells (inhibitory MR activity). The note with it: antagonism vs aldosterone; CHO K1 GAL4-MR LBD luciferase reporter.
From the text: as §1, §2, §3, §4, §5

As to `CSCc1cc(F)cc2c(C(C)(c3ccc(Cl)cc3)C3CC3C#N)c[nH]c12` (stereo not drawn) [Example 179, 2-[1-(4-Chlorophenyl)-1-{5-fluoro-7-[(methylsulfanyl)methyl]-1H-indol-3-yl}ethyl]cyclopropanecarbonitrile], the results for the IC50 (in assay [1]; against androgen receptor (AR); in assay [2]) were 1.93 µM, 2.03 µM and 100 nM, respectively.

On to `CCC(CCO)(c1ccc(Cl)cc1)c1c[nH]c2c(CSC)cccc12` (stereo not drawn) [Example 140, 3-(4-Chlorophenyl)-3-{7-[(methylsulfanyl)methyl]-1H-indol-3-yl}pentan-1-ol], for which the IC50 in assay [1] was found to be 10 µM; against androgen receptor (AR) it was 6.6 µM; in assay [2] it was 270 nM.

For the compound `CS(=O)(=O)Cc1cccc2c(C(c3ccc(Cl)cc3Cl)C3CC3(F)F)c[nH]c12` (single isomer, unassigned) [Example 325-1-1, 3-[(2,4-Dichlorophenyl)(2,2-difluorocyclopropyl)methyl]-7-[(methylsulfonyl)methyl]-1H-indole], the IC50 in assay [1] is 7.53 µM; against androgen receptor (AR) it was 0.52 µM; in assay [2] it was 12 nM.

Consider `CS(=O)(=O)Cc1cccc2c(C(CCC#N)c3ccc4ccccc4c3)c[nH]c12` (stereo not drawn) [Example 69, 4-{7-[(Methylsulfonyl)methyl]-1H-indol-3-yl}-4-(naphthalen-2-yl)butanonitrile], for which the results for the IC50 (in assay [1]; at androgen receptor (AR); in assay [2]) were 6.59 µM, 5.22 µM and 420 nM, respectively.

Turning to `C[S+]([O-])Cc1cccc2c(C(c3ccc(Cl)cc3)c3ccc(Cl)cc3)c[nH]c12` (racemic) [Example 296, 3-[Bis(4-chlorophenyl)methyl]-7-[(methylsulfinyl)methyl]-1H-indole], the results for the half-maximal inhibitory concentration (IC50) (in assay [1]; against androgen receptor (AR); in assay [2]) were 4.81 µM, 6.57 µM and 210 nM, respectively.

Consider `CS(=O)(=O)Cc1c(F)ccc2c(C(CCC#N)c3ccc(Cl)cc3)c[nH]c12` (stereo not drawn) [Example 71, 4-(4-Chlorophenyl)-4-{6-fluoro-7-[(methylsulfonyl)methyl]-1H-indol-3-yl}butanonitrile], for which the figures for the IC50 (in assay [1]; on androgen receptor (AR); in assay [2]) were 4.47 µM, 3.99 µM and 320 nM, respectively.

On to `CS(=O)(=O)Cc1cccc2c(C3(C4CC4)CCOc4cc(F)cc(F)c43)c[nH]c12` (stereo not drawn) [Example 219, 3-(4-Cyclopropyl-5,7-difluoro-3,4-dihydro-2H-chromen-4-yl)-7-[(methylsulfonyl)methyl]-1H-indole], for which the IC50 was found to be 8.12 µM in assay [1], 2.73 µM on androgen receptor (AR) and 42 nM in assay [2].

As for `CC(c1ccc(Cl)cc1)(c1c[nH]c2c(CS(C)(=O)=O)cccc12)C1CC1C#N` (stereo not drawn) [Example 106, 2-[1-(4-Chlorophenyl)-1-{7-[(methylsulfonyl)methyl]-1H-indol-3-yl}ethyl]cyclopropanecarbonitrile], the half-inhibitory concentration (IC50) in assay [1] worked out at 11.7 µM; on androgen receptor (AR), 5.31 µM; in assay [2], 40 nM.

As for `CS(=O)(=O)Cc1cccc2c(C(c3ccc(F)cc3)c3ccc(Cl)cc3)c[nH]c12` (single isomer, unassigned) [Example 114-2, 3-[(4-Chlorophenyl)(4-fluorophenyl)methyl]-7-[(methylsulfonyl)methyl]-1H-indole], the figures for the IC50 (in assay [1]; at androgen receptor (AR); in assay [2]) were 6.55 µM, 1.23 µM and 220 nM, respectively.

As for `CSCc1cccc2c(C(c3ccc(F)cc3)c3ccc(Cl)cc3)c[nH]c12` (stereo not drawn) [Example 100, 3-[(4-Chlorophenyl)(4-fluorophenyl)methyl]-7-[(methylsulfanyl)methyl]-1H-indole], the IC50 in assay [1] was found to be 10 µM; against androgen receptor (AR) it was 5.24 µM; in assay [2], 460 nM.

Take `CCC(CCO)(c1ccc(Cl)cc1)c1c[nH]c2c(C[S+](C)[O-])cccc12` (mixture of isomers) [Example 143, 3-(4-Chlorophenyl)-3-{7-[(methylsulfinyl)methyl]-1H-indol-3-yl}pentan-1-ol]: the IC50 in assay [1] was 4.58 µM; on androgen receptor (AR), 6.44 µM; in assay [2], 140 nM.

As for `Cc1cc(Cl)ccc1C(CCO)c1c[nH]c2c(CS(C)(=O)=O)cccc12` (stereo not drawn) [Example 26, 3-(4-Chloro-2-methylphenyl)-3-{7-[(methylsulfonyl)methyl]-1H-indol-3-yl}propan-1-ol], the IC50 in assay [1] is 2.32 µM; at androgen receptor (AR), 2.23 µM; in assay [2], 50 nM.

In the case of `CSCc1cc(F)cc2c(C3(C4CC4)CCc4cc(F)ccc43)c[nH]c12` (stereo not drawn) [Example 94, 3-(1-Cyclopropyl-5-fluoro-2,3-dihydro-1H-inden-1-yl)-5-fluoro-7-[(methylsulfanyl)methyl]-1H-indole], the IC50 in assay [1] amounted to 3.14 µM; against androgen receptor (AR), 1.6 µM; in assay [2], 160 nM.

Consider `CCC(CCC#N)(c1ccc(Cl)cc1)c1c[nH]c2c(CS(C)(=O)=O)cccc12` (single isomer, unassigned) [Enantiomer 172-1, 4-(4-Chlorophenyl)-4-{7-[(methylsulfonyl)methyl]-1H-indol-3-yl}hexanonitrile], for which the IC50 is 4.31 µM in assay [1], 3.8 µM at androgen receptor (AR) and 7 nM in assay [2].

As for `C[S+]([O-])Cc1cccc2c(C(C)(c3ccc(Cl)cc3F)C3CC3)c[nH]c12` (mixture of isomers) [Example 124, 3-[1-(4-Chloro-2-fluorophenyl)-1-cyclopropylethyl]-7-[(methylsulfinyl)methyl]-1H-indole], the results for the IC50 (in assay [1]; on androgen receptor (AR); in assay [2]) were 8.13 µM, 6.94 µM and 120 nM, respectively.
